The subject of one test is HepG2 cells. The test is described as follows: Cell growth under high-density conditions (SRB assay), delayed cell death (DCD). The class given is cell-based, human. As to conditions: high density HepG2 cultures; for minimal effective concentration: Homo sapiens. (In SRB staining, fixed cells bind dye roughly in proportion to their protein.)
The subject of another test is Hep G2 cells. The test can be described thus: Nicotinamide Reversibility Assay / cell growth inhibition of Hep G2 cells (SRB, six days). The class given is cell-based, human. Conditions: for IC50: six days of compound incubation, SRB, read-out: Cell growth inhibition IC50-values [μM] Hep G2. The method, then: Nicotinamide Reversibility Assay
Hep G2 cells derived from a human liver carcinoma were plated at a density of 20,000 cells/ml in 12-well plastic dishes. Cultivation occurred in Richters IMEM-ZO nutrient medium with 5% fetal calf serum (FCS) in a tissue culture incubator with a gas mixture of 5% CO2 and 95% air at a temperature of 37° C. One day after plating, the culture medium was aspirated from the cells and replaced by fresh medium which contained the respective concentrations of the test compounds and where applicable of the nicotinamide. For the individual concentrations and the controls without test compounds, three-fold batches were done for each. Three days after the beginning of treatment, the medium was again renewed with the test compounds and where applicable the nicotinamide. After six days of compound incubation, the test was ended and the protein amount in the individual wells was determined with the sulforhodamin-B-method (according. to P. Skehan et al.: New Colorimetric Cytotoxicity Assay for Anticancer-Drug Screening. J. Natl. Cancer Inst. 82: 1107-1112, 1990). The IC50-values were taken from the dose-response curves and given as a comparative measurement for the activity of the test compounds.

The target of test [1] is T1, niacinamide phosphoribosyltransferase (NAPRT, EC 2.4.2.12) (Homo sapiens, UniProt P43490).
T1 construct: protamine-treated cytoplasmic fraction of K-562 cells as the enzyme source; endogenous in cells; host or cells: K-562 (ATCC CCL 243), freeze-thaw lysate, 23,000 x g supernatant treated with protamine sulfate
T1 sequence (P43490 whole entry): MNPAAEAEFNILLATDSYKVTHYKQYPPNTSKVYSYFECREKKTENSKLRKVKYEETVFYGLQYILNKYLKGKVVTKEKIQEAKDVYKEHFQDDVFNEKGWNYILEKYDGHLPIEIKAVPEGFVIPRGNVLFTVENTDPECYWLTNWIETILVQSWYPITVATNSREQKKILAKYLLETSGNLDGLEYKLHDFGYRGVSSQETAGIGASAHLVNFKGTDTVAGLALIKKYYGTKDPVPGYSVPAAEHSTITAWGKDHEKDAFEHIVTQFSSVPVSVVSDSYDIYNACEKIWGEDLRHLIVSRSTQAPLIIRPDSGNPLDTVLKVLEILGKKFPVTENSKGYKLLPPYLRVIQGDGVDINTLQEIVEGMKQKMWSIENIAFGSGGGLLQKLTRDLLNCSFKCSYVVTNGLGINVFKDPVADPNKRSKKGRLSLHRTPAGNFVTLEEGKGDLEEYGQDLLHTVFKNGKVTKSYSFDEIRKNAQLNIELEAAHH
The test can be described thus: Niacinamide phosphoribosyltransferase (NAPRT) assay, protamine-treated cytoplasmic fraction of K-562 cells. The class given is biochemical. As to conditions: for NAM: niacinamide mononucleotide formed, controls 79.1 and 71.8; for NA: niacinamide remaining, controls 389.7 and 397.0; for NAM [%] / NA [%]: portion of total radioactivity. On the procedure:
The effect of the compounds on the enzyme niacinamide phosphoribosyltransferase (NAPRT, EC 2.4.2.12) was investigated using for example protamine-treated cytoplasmic fraction of K-562 cells as the enzyme source according to the NAPRT assay described in the experimental part below. The investigated compounds were used in concentrations of 10 μM, except for K22387 and K22133 where the concentration was 1 μM.
The assay is based on the amount of radioactive incorporation from ^14C-labelled niacinamide into niacinamide mononucleotide (NAM). NAM is subsequently separated from niacinamide (NA) by thin-layer chromatography and its quantity is determined by autoradiography.
Niacinamide Phosphoribosyltransferase (NAPRT) Assay
The human cell line K-562 (chronic myelogenous leukaemia) is obtained from the American Type Culture Collection (ATCC CCL 243), Rockville, Md., USA. The K-562 cells are cultured in RPMI (Sigma, Deisenhofen, Germany, Product No.: R6504) containing 10% foetal calf serum (PAN Systems GmbH, Aidenbach, Germany), 2.2 g/l NaHCO3 (Merck, Darmstadt, Germany), 50,000 IU/l penicillin and 50 mg/l streptomycin (Sigma).
The K-562 cells are grown in RPMI supplemented with 10% FCS at 37° C. and 100% humidity in a 5% CO2 atmosphere up to a density of 2×10^6 cells per ml. Under these conditions, the cells grow logarithmically with a generation time of 24 hours. The cells are harvested by aspiration and centrifugation (250×g, 10 min, RT). Thereafter, the cells are washed at least 3 times by repeated centrifugation (250×g, 10 min, RT) and resuspension in CMF-PBS. After counting the cell suspension in a haematocytometer, the cells are spun into a tight pellet (390×g, […], RT) and the supernatant is carefully drawn off with a Pasteur pipette. The cells are then vortexed into suspension in sufficient lysis buffer to give a final concentration of 3×10^7 cells per ml. The suspension is frozen at −80° C. for at least one day and thawed slowly at room temperature to break up the cells. The breakage is usually greater than 95%, as determined by trypan blue exclusion. Following centrifugation at 23,000×g for 90 min at 0° C., the clarified supernatant is recovered on ice and 70 μl of 1% protamine sulfate is added per ml of supernatant. After 15 min on ice, the cloudy suspension is centrifuged a further 30 min at 23,000×g and 0° C. The final supernatant is stored in small aliquots at […] This supernatant contains about 950 to 1440 μg protein per ml. 120 to 140 μg protein per sample is used in the NAPRT assay (total assay volume: 0.5 ml).
The niacinamide phosphoribosyltransferase activity is determined in a reaction solution of 0.5 ml consisting of 5 mM MgCl2, 2 mM ATP, 0.5 mM PRPP, and [^14C]niacinamide (10^−5 M to 10^−7 M) in 50 mM Tris buffer pH 8.8 (final concentrations in the assay). The reaction is started by adding 100 to 120 μl cell extract. After incubation for 1 hour at 37° C., the enzyme reaction is stopped by adding cold niacinamide (50 μl of a 100 mM niacinamide solution per 0.5 ml reaction mixture) and by heating on a heating block (2 min, 105° C.). The precipitate is removed by centrifugation (2,500×g, 10 min, 4° C.) and the supernatant is collected into a […] polypropylene vial with screw cap and stored at −20° C. until further analysis. A 10 μl aliquot is taken from the supernatant to determine the total amount of radioactivity.
The ^14C-labelled components of the reaction mixture are separated and identified using thin-layer chromatography (TLC). 5 to 7.5 μl of each sample is transferred to a cellulose TLC foil using an automated sample applicator. The cellulose foil is developed using 1 M NH4 acetate:ethanol (3:7) as solvent. The chromatogram is run with added non-radioactive standards of NAD, NADP, NAM and niacinamide, and the spots were identified by UV absorption (RF values see Table 7). For autoradiography, the chromatogram is exposed to an imaging plate BAS-IIIs in a hypercassette for at least two days. […]

Test [2] has as its system NAD(P) synthesis from niacinamide in HepG2 cells. The test is described as follows: Determination of NAD(P) synthesis from [14C]niacinamide in HepG2 cells. The class given is cell-based, human. An excerpt: The effect of the compounds on the synthesis of NAD(P) starting from niacinamide was investigated using for example the tumor cell line HepG2 according to the technique described in the experimental part below.
The inhibition of the NAD(P) synthesis from niacinamide by these compounds was investigated in HepG2 cells as described in the section “Material and Methods”. The compounds of Table 3 a were used at a concentration of 10^−5 M. The compounds of Table 3 b were used at concentrations of at least 10^−5 M, except for Doxorubicin where the concentration was 0.3×10^−5 M. As a control, vehicle treated or untreated cells were used.
In these experiments, a pre-incubation period of 17 hrs with the compounds was used, but it turned out that the pre-incubations period could be shortened, for example to 2 hrs, or skipped completely without affecting the inhibition profile. […] Similar results were obtained with the other specific compounds.
For the detection of specific inhibitors of niacinamide mononucleotide formation the following screening assay is especially useful which comprises the following steps: incubating cultured cells selected from HepG2 cells, U-87 MG cells, MCF-7 M1 cells, Caki-1 cells, HL-60 cells, PC3 cells, U-373 MG cells, A549 cells and KG-1a cells in the presence of [^14C]niacinamide and a compound to be tested for its activity to inhibit the cellular formation of niacinamide mononucleotide; effecting lysis of the cells; isolating and separating the [^14C]-labeled compounds and measuring the amount of formed labeled niacinamide mononucleotide, NAD and NADP. More concretely, cultured cells are seeded in a defined density in culture dishes, followed by incubation in the presence of a test compound and by the addition of [^14C]niacinamide for about 0.1 to 6 hrs. The cells are then lysed with perchloric acid and the resulting extract is neutralized. Finally, the [^14C]-labeled compounds are separated by thin-layer chromatography on cellulose matrices followed by UV detection and autoradiography. Non-radioactive niacinamide derivatives are used as standards. This assay allows simple and effective screening and selection of the compounds according to the invention.
Determination of NAD(P) Synthesis from [^14C]Niacinamide
The cells were detached from 75 cm^2 flasks by removing the growth medium and adding 3 ml trypsin/EDTA solution to each flask. After about 5 minutes incubation at 37° C., when the cells were detached from the surface of the dishes, trypsinization was stopped by adding 3 ml Richter's IMEM-ZO medium containing 10% FCS. The cells were suspended by repeated pipetting. For predilution, an aliquot of 20 μl was added to 10 ml Casyton isotonic solution (No. 043-90037P, Schärfe System, Reutlingen, Germany) using a Sysmex Auto Dilutor Type AD-260 (Toa, Medical Electronics Co. Ltd., Kobe, Japan). The cell number was determined by electronic cell volume measurements and counting with a CASY 1 Cell Counter+Analyzer System, Model TTC (Schärfe System, Reutlingen, Germany) equipped with a 60 μm capillary. Following dilution in IMEM-ZO containing 10% FCS, the cells were finally seeded at a density of 4×10^6/10 ml per sample in Ø 10 cm tissue culture dishes (Greiner, Frickenhausen, Germany) and incubated at 37° C. in a humidified atmosphere of 5% CO2 in air.
After one day, when the cells were adherent to the dishes, the cultures were replenished with IMEM-ZO containing 5% FCS plus the test compound or the vehicle. […] The cells were then incubated at 37° C. for 17 hours in a humidified atmosphere of 5% CO2 in air. This preincubation period is not necessary to achieve a distinct inhibitory action of the compounds and can be shortened for example to 2 or 0 hours. After this period of time, the medium was again discarded and 4 ml HEPES-buffered IMEM-ZO containing the test compound or the vehicle and 0.5 μCi/ml [^14C]niacinamide were added to each culture for an additional 5 hours at 37° C. and 100% humidity. […]

The mark [3] stands for this setting: minimum concentration which, despite initial growth, induced cell death below the number of initially seeded cells, Table 2.
The mark [4] stands for this setting: Homo sapiens, HepG2, 144 h, Hep G2.
Setting [5] is: compound 10 μM, controls 16.88 and 15.32.
Where [6] appears, read: compound 10 μM, controls 83.12 and 84.68.

Like-named read-outs stand apart in the source and are kept apart here.

Consider `O=C(CCc1cccnc1)NCCCCC1CCN(CCCCC2CCN(C(c3ccccc3)c3ccccc3)CC2)CC1` [Compound K22316, N-(4-(1-[4-{1-benzhydryl-piperidine-4-yl)-butyl]-piperidine-4-yl}-butyl)-3-pyridine-3-yl-propanoic acid amide], for which the minimal effective concentration in the test on HepG2 cells (Table 5) and in the test on HepG2 cells (setting [3]) was 1 µM in each case. For the same molecule, the IC50 with Hep G2 cells (setting [4]) stood at 0.9 µM. In addition, the “NAM” value in test [1] (compound 10 μM) is given as 0.0 pmol/h. In test [1] (compound 10 μM), the “NA” value turned out to be 468.8 pmol/h. Also, the “NAM [%]” value in test [1] (setting [5]) is 0.00%. In test [1] (setting [6]), the “NA [%]” value is given as 100.00%.

The molecule `O=C(/C=C/c1cccnc1)NCCCCCCCC(c1ccccc1)c1ccccc1` [Compound K22133, N-(8,8-diphenyl-octyl)-3-pyrid-3-yl-acrylamide] came in with a minimal effective concentration in the test with HepG2 cells (Table 5) of 0.03 µM. The same molecule registered a minimal effective concentration with HepG2 cells (setting [3]) of 0.03 µM. The IC50 in the test with Hep G2 cells (setting [4]) turned out to be 0.02 µM. Further, in test [1] (compound 1 μM), the “NAM” value is 0.0 pmol/h, the “NA” value is 468.8 pmol/h, the “NA [%]” value was 100.00% and the “NAM [%]” value was 0.00%.

Take `O=C(NCCCCCCNC(=O)NCc1cccnc1)NCCC(c1ccccc1)c1ccccc1` [Compound K22158, 1-(3,3-diphenylpropyl)-3-[6-(3-pyridine-3-yl-methylureido)-hexyl]-urea]: the minimal effective concentration in the test with HepG2 cells (Table 5) is 1 µM. The minimal effective concentration in the test with HepG2 cells (setting [3]) came to 1 µM. In addition, in the test on Hep G2 cells (setting [4]), the IC50 was found to be 0.1 µM. In test [1] (compound 10 μM), the “NAM” value was found to be 0.0 pmol/h and the “NA” value amounted to 468.8 pmol/h. Besides, the “NAM [%]” value in test [1] (setting [5]) is 0.00%. Besides, in test [1] (setting [6]), the “NA [%]” value worked out at 100.00%.

As to `NC(=O)c1c[se]c([C@@H]2O[C@H](CO)[C@@H](O)[C@H]2O)n1` [Selenazofurin, reference compound], the “Tox. (effective (toxic) concentration) in DCD” value with HepG2 cells (toxic compounds, rapid decrease in cell numbers) is reported as “Tox. 30 μM”. Moreover, in the test on Hep G2 cells (Hep G2), the “Influence of the addition of nicotinamide on the action on cell growth (FIGS. 20 to 27)” value was “no measurable influence” and the IC50 came to 0.7 µM. The “Reversal by Niacinamide” value in the test with Hep G2 cells (Hep G2 cell growth inhibition with added nicotinamide) is “no”. Moreover, the “Cellular NAD synthesis inhibition [%]” value in test [2] (10 μM) was 30 (10 μM) %. The “NAD(P) % of Control” value in test [2] (Table 3b, at least 10^-5 M) was found to be 70.2%. Besides, in test [2] (Table 3b, at least 10^-5 M, control 374.00), the “NAD(P) pmol/mg protein” value was 372.29 pmol/mg protein. Further, the “NAD(P) pmol/10^6 cells” value in test [2] (Table 3b, toxic compounds at at least 10^-5 M, control 531) amounted to 372.29 pmol/10^6 cells.

As a reminder, the minimal effective concentration is the smallest amount tested that counted as effective. The low end stands for greater potency, the high end for weaker potency. As usually defined, the IC50 is the point on the concentration scale where inhibition reaches its midpoint.

(Values after patent US20020160968A1, “Inhibitors of cellular niacinamide mononucleotide formation and their use in cancer therapy” (Klinge Pharma GmbH, priority 1999, published 2002).)
